According to patent US4737504A, “5-fluoro-and 8-fluoro-trimetoquinol compounds and the processes for their preparation” (priority 1986, dated 1988):
Read-outs that look alike come from different tables or passages of the source.

Assays:
adrenergic receptors = details: background; cited from earlier work
[1] = background; cited from earlier work
[2] = biological target: T1, U46619-induced contractions of rat thoracic aorta (Rattus norvegicus, UniProt P34978); test: antagonism of U46619-induced contractions of rat thoracic aorta; type: cell-based, rat (male Sprague-Dawley); details: no analog (None); n = 16; read-out: pD2 of U46619 (control) (converted)
T1 construct: A 2-3 cm segment of thoracic aorta was excised; tissue Harlan Industries, Inc., Cumberland, IN (animals); host or cells: rat thoracic aorta, spirally cut strips
T1 sequence (P34978 1-341): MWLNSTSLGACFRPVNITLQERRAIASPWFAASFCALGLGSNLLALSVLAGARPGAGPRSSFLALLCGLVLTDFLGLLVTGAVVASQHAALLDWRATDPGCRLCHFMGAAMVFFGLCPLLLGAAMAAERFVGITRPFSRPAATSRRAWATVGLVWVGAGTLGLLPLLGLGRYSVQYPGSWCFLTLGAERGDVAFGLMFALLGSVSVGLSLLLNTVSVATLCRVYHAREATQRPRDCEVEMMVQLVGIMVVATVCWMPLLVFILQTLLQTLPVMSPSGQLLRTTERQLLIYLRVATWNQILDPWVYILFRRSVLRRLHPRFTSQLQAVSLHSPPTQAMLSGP
Protocol: The vasoconstrictive activity of U46619 (a stable thromboxane A2 agonist) on thoracic aorta tissue was determined as follows: Male Sprague-Dawley rats (Harlan Industries, Inc., Cumberland, IN) weighing between 250 and 350 gm were stunned and killed by cervical dislocation. A 2-3 cm segment of thoracic aorta was excised, cleaned of any adhering fat and connecting tissue, spirally cut into 2 matched strips, Constantine, supra. (2.0×0.3 cm). Strips were mounted in 10 ml tissue baths filled with the physiological salt solution in which 3×10^-6 M indomethaecin was present. A tension of 1 gm was applied to the strips. Responses of the tissues to drugs were monitored via Grass FT-03 isometric force transducers connected to a Grass Model 7C polygraph (Grass Instruments Co., Quincy, MA).
Some experiments were done in the absence of indomethacin. Concentration-dependent responses to U46619 were constructed in each preparation as described by Van Rossum, supra.
Effective concentration-50 (EC50) values of the agonists were determined graphically from individual plots of percent response versus log concentration. The potency of each agonist was expressed as a pD2 value where pD2 is equal to the negative logarithm of the experimentally determined EC50 value.
Antagonists were quantitated by calculating their pKB or pA2 values according to the methods of Furchgott, Ann. N.Y. Acad. Sci., 139: 553-570 (1967) and Arunlakshana et al., Br. J. Pharmacol., 14: 48-58 (1959). The pKB value is equivalent to the -log of [I]/(CR-1), where pKB is the negative logarithm of the apparent dissociation constant of the antagonist (KB), [I] is the concentration of the antagonist, and CR is the concentration ratio of the agonist EC50 in the presence of antagonist to the agonist EC50 in the absence of antagonist. To determine significant differences between pD2, pKB or pA2 values, a 5% level of significance was used. Arunlakshana plots were analyzed by computer according to the method of Tallarida et al., Manual of Pharmacological Calculations With Computer Programs, 29-31, (1981).

[3] = biological target: T2, β2-adrenoceptors (guinea pig trachea) (Cavia porcellus, UniProt Q8K4Z4); test: relaxation of carbachol-contracted guinea pig tracheal strips (β2-adrenergic activity); type: cell-based, guinea pig (male albino Hartley)
T2 construct: the atria and trachea were quickly removed by standard procedures; tissue Glenn Carr, Columbus, OH (animals); host or cells: guinea pig trachea, spirally cut strips
Protocol: (§1) The β2 /β1 -adrenergic activity was determined using the following procedure: Male albino Hartley guinea pigs were employed in all experiments. The isolation and procedures for testing of each compound (10^-9 to 3×10^-5 M) with isolated guinea pig atria and trachea were identical with those described by Sober et al., J. Med. Chem., 24: 970, 1981.
Male guinea pigs (Hartley strain, Glenn Carr, Columbus, OH) weighing between 400 and 700 grams were reserpinized (5 mg/kg, i.p.) 12-16 hours before experiments. Animals were sacrificed by a sharp blow to the head and the atria and trachea were quickly removed by standard procedures (The Staff, University of Edinburgh, "Pharmacological Experiments on Isolated Preparation", Livingston, London, pp. 104-111, 1970). Trachea were spirally cut into 2 to 4 matched strips (Constantine, J. Pharm. Pharmac., 17: 34-35, 1965). Spontaneously beating atria and tracheal strips were mounted in 10 ml tissue baths filled with Krebs-Heinsleit solution (millimolar concentrations: NaCl, 118; KCl, 4.7; CaCl2 -2H2 O, 2.5; MgCl2 -6H2 O, 5.0; NaH2 PO4 H2 O, 1.0; NaHCO3, […]; and dextrose, 11) warmed to 37° C. and bubbled with 95% O2 :5% CO2. Tensions of 1 and 3 gm were applied to the atria and trachea, respectively.
Following a minimum 1 hour equilibration period, a concentration of 3×10^-7 M carbachol was administered to the strips.
(§2) Each drug concentration was added only after the effects of the previous concentration reached a maximum and remained constant. […] Responses for agonists were expressed as pD2 values (-log EC50) values and were calculated directly from graphical plots of % maximal response versus log molar drug concentration.

[4] = biological target: T3, β1-adrenoceptors (guinea pig atria) (Cavia porcellus, UniProt H0W3H1); test: chronotropic response of spontaneously beating guinea pig right atria (β1-adrenergic activity); type: cell-based, guinea pig (male albino Hartley); details: read-out: IAR ± SEM (intrinsic activity ratio)
T3 construct: the atria and trachea were quickly removed by standard procedures; tissue Glenn Carr, Columbus, OH (animals); host or cells: guinea pig right atria, spontaneously beating
Protocol: as §1
Male guinea pigs (Hartley strain, Glenn Carr, Columbus, OH) weighing between 400 and 700 grams were reserpinized (5 mg/kg, i.p.) 12-16 hours before experiments. Animals were sacrificed by a sharp blow to the head and the atria and trachea were quickly removed by standard procedures (The Staff, University of Edinburgh, "Pharmacological Experiments on Isolated Preparation", Livingston, London, pp. 104-111, 1970). Trachea were spirally cut into 2 to 4 matched strips (Constantine, J. Pharm. Pharmac., 17: 34-35, 1965). […]
as §2

[5] = test system: human platelets (U46619-induced aggregation); test: inhibition of U46619-induced platelet aggregation in presence of aspirin, human platelet-rich plasma; type: cell-based
Protocol: (§3) The antiaggregatory and antisecretory activity on human platelets was determined by evaluating the in vitro aggregation and [^14 C]serotonin secretion in human platelet preparations. Blood was taken by venipuncture from normal human volunteers who were reported to be free of medication for at least 10 days before blood drawing. Venous blood samples were mixed with acid-citrate dextrose solution (9:1) and centrifuged at 120×g for 15 minutes at room temperature to obtain platelet-rich plasma, PRP, (Huzoor-Akbar et al., Biochem. Pharmacol., 30: 2013-2020, 1981). The PRP was transferred to polypropylene tubes and stored under an atmosphere of 8% CO2. The remaining blood was centrifuged at 1000×g for 10 minutes to obtain platelet-poor plasma. […] Platelet counts varied between 280,000 to 320,000 per cmm or were adjusted to 300,000 per cmm for the aggregation and secretion experiments. All studies were conducted within 2 hours after PRP recovery.
(§4) For aggregation studies, 0.5 ml of PRP was incubated with drug or vehicle (1-5 μl) for 1 minute at 37° C. before the initiation of aggregation with inducers. […] In all experiments, the minimum concentration of inducer (adenosine diphosphate ADP; epinephrine, E; 15S-hydroxy-11α,9α-epoxymethanoprosta-5Z,13E-dienoic acid, U46619; collagen; and arachidonic acid, AA) which caused maximal irreversible aggregation within each PRP preparation was used. Aggregation was monitored for 4 to 6 minutes after the addition of an inducer and data were presented as a percentage inhibition of either slope or maximal light transmittance changes in the presence of varying drug concentrations.

[6] = test system: human platelets (U46619-induced serotonin secretion); test: inhibition of U46619-induced serotonin secretion in presence of aspirin, human platelet-rich plasma; type: cell-based
Protocol: as §3, §4
(§5) Secretion data were calculated as the net increase of serotonin released into the supernatant by each inducer and expressed as a percentage of the total radioactivity in platelets Mayo et al., Biochem. Pharmacol., 30: 2237-2241, 1981. The effect of compounds on serotonin release was expressed as the percentage of inhibition of the maximum release by each inducer and plotted against the log molar concentrations of each agent.

[7] = test system: human platelets (arachidonic acid-induced aggregation); test: inhibition of arachidonic acid-induced platelet aggregation, human platelet-rich plasma; type: cell-based
Protocol: as §3, §4

[8] = test system: human platelets (arachidonic acid-induced serotonin secretion); test: inhibition of arachidonic acid-induced serotonin secretion, human platelet-rich plasma; type: cell-based
Protocol: as §3, §4, §5

[9] = test system: human platelets (collagen-induced aggregation); test: inhibition of collagen-induced platelet aggregation, human platelet-rich plasma; type: cell-based
Protocol: as §3, §4

[10] = test system: human platelets (collagen-induced serotonin secretion); test: inhibition of collagen-induced serotonin secretion, human platelet-rich plasma; type: cell-based
Protocol: as §3, §4, §5

[11] = test system: human platelets (ADP-induced aggregation); test: inhibition of the secondary phase of ADP-induced platelet aggregation, human platelet-rich plasma; type: cell-based
Protocol: as §3, §4

[12] = test system: human platelets (ADP-induced serotonin secretion); test: inhibition of ADP-induced serotonin secretion, human platelet-rich plasma; type: cell-based
Protocol: as §3, §4, §5

[13] = test system: human platelets (epinephrine-induced aggregation); test: inhibition of the secondary phase of epinephrine-induced platelet aggregation, human platelet-rich plasma; type: cell-based
Protocol: as §3, §4

[14] = test system: human platelets (epinephrine-induced serotonin secretion); test: inhibition of epinephrine-induced serotonin secretion, human platelet-rich plasma; type: cell-based
Protocol: as §3, §4, §5

human platelets [15] = test: human platelet aggregation and serotonin release, inducers taken together; type: cell-based; details: each inducer
Protocol: as §3, §4, §5

[16] = phenol acidities (pKa) determined spectrophotometrically; type: physicochemical; details: phenol; tris(hydroxymethyl)aminomethane buffer; UV
Protocol: Phenol acidities (pKa) were determined spectrophotometrically, as described by Albert et al., "The determination of Ionization Constants" 3rd Ed., Chapman and Hall, London and New York, 1984, by measuring the absorption as a function of pH in tris(hydroxymethyl)aminomethane buffer. Since the catechols tended to oxidize in basic media the buffers were degassed and flushed with argon prior to use.

human platelets [17] = details: in vitro, background; cited from earlier work
[18] = cited from earlier work
[19] = read-out: IC50 platelet aggregation
[20] = read-out: pIC50 platelet aggregation (converted)
[21] = read-out: IC50 serotonin secretion
[22] = read-out: pIC50 serotonin secretion (converted)
[23] = read-out: IC50 platelet aggregation (secondary phase)
[24] = read-out: pIC50 platelet aggregation (secondary phase) (converted)

T2 sequence (Q8K4Z4 whole entry): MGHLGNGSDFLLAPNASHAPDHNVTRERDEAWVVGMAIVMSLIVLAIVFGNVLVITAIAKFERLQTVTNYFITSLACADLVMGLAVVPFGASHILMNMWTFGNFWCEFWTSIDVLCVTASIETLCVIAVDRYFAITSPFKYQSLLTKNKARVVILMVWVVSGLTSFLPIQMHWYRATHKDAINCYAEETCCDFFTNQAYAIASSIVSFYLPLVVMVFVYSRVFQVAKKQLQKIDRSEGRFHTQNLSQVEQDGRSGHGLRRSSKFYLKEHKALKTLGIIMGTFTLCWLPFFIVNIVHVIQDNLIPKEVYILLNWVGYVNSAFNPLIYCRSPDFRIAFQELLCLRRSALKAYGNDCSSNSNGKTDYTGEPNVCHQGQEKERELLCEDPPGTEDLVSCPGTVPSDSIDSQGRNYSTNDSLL
T3 sequence (H0W3H1 1-470): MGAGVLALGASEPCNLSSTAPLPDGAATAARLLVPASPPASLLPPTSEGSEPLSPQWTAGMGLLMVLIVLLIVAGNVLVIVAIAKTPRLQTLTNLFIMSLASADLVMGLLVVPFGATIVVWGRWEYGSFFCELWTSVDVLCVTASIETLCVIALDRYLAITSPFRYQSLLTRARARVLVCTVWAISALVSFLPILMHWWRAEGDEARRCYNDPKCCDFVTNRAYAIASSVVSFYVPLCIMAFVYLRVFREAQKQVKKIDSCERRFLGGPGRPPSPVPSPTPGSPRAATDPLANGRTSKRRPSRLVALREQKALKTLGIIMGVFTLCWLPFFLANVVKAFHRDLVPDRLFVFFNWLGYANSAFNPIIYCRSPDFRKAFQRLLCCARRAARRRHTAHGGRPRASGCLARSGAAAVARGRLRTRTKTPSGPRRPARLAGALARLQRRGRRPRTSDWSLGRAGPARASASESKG

CNC[C@H](O)c1ccc(O)c(O)c1 [epinephrine]
adrenergic receptor activity/selectivity (adrenergic receptors): stimulates both α- and β-adrenergic receptors to about the same degree
side effects [1]: tachycardia, elevated blood pressure, headache, and tremors

NCC(O)c1ccc(O)c(O)c1F (stereo not shown)
adrenergic receptor activity/selectivity (adrenergic receptors): selective β-adrenergic agonist

NCCc1ccc(O)c(O)c1F [2-fluoro-dopamine]
adrenergic receptor activity/selectivity (adrenergic receptors): do not show selectivity for adrenergic receptors

CCCCC[C@H](O)/C=C/[C@@H]1[C@@H](C/C=C\CCCC(=O)O)[C@H]2CO[C@@H]1C2 [Compound U46619, 15S-hydroxy-11α,9α-epoxymethanoprosta-5Z,13E-dienoic acid, reference compound]
EC50 [2]: 6.76 nM

NCCc1cc(O)c(O)cc1F [6-fluoro-dopamine]
adrenergic receptor activity/selectivity (adrenergic receptors): do not show selectivity for adrenergic receptors

NCC(O)c1cc(O)c(O)cc1F (stereo not shown) [6-fluoro analog of norepinephrine]
adrenergic receptor activity/selectivity (adrenergic receptors): selective β-adrenergic agonist

COc1cc(CC2NCCc3cc(O)c(O)cc32)cc(OC)c1OC (stereo not shown) [TMQ, trimetoquinol]
EC50 [3]: 57.5 nM
agonist activity on tracheal relaxation [3]: nearly equally active as an agonist on tracheal relaxation
Emax ([3]; guinea pig, read-out: IAR ± SEM (intrinsic activity ratio)): 95 ± 1%
Emax [4]: 100%
IC50 [5, 19]: 440 nM
IC50 [5, 20]: 437 nM
IC50 [6, 21]: 720 nM
IC50 [6, 22]: 692 nM
IC50 [7, 19]: 1040 nM
IC50 [7, 20]: 1050 nM
IC50 [8, 21]: 1330 nM
IC50 [8, 22]: 1260 nM
IC50 [9, 19]: 930 nM
IC50 [9, 20]: 933 nM
IC50 [10, 21]: 620 nM
IC50 [10, 22]: 589 nM
IC50 [11, 23]: 340 nM
IC50 [11, 24]: 269 nM
IC50 [12, 21]: 230 nM
IC50 [12, 22]: 200 nM
IC50 [13, 23]: 1730 nM
IC50 [13, 24]: 1660 nM
IC50 [14, 21]: 1150 nM
IC50 [14, 22]: 1020 nM
inhibition of aggregation and serotonin release (human platelets [15]): inhibitors of aggregation and serotonin release by each inducer
pKa [16]: 8.77 ± 0.15
effect on arachidonic acid-mediated platelet aggregation (human platelets [17]): blocks endoperoxide/thromboxane arachidonic acid-mediated in vitro aggregation of human platelets
side effects [1]: undesirable effect of also increasing the β1 -adrenergic activity which stimulates the heart

CC(C)NCC(O)c1ccc(O)c(O)c1 (stereo not shown) [isoproterenol]
duration of action ([18]; averaging): 1.5 to 2 h
onset of action ([18]; bronchodilator, inhalation): 2 to 5 min
adrenergic receptor activity/selectivity (adrenergic receptors): possesses little tissue selectivity and stimulates both β1 - and β2 -adrenergic receptors
side effects [1]: undesirable tachycardia, increase in cardiac output and an elevation in blood pressure

CNC[C@H](O)c1ccc(O)c(O)c1 [R-(-)-epinephrine]
adrenergic receptor activity/selectivity (adrenergic receptors): more active than S-(+)-epinephrine on both α- and β-adrenergic receptors
